In patent US20230293407A1, “Compositions Comprising (Bio)-Alkanediols with Antimicrobials for Product Protection” (Symrise AG, priority 2020, published 2023):

How the values were obtained:
Pseudomonas aeruginosa = assay: preservation efficacy test (PET), European Pharmacopoeia 5.1.3; assay type: cell-based
Staphylococcus aureus = assay: as above; assay type: cell-based
Escherichia coli = assay: as above; assay type: cell-based; details: for number of microorganisms, 14 days / number of microorganisms, 28 days: Escherichia coli (EC)
Candida albicans = assay: as above; assay type: cell-based; details: for count at 2 days / count at 7 days / count at 14 days / count at 28 days: CA, use concentration in label
Aspergillus brasiliensis = assay: as above; assay type: cell-based; details: for count at 2 days / count at 7 days / count at 14 days / count at 28 days: AB, use concentration in label
bacteria = assay: preservation efficacy test (PET), overview of the effect against bacteria; assay type: cell-based; details: PET in formulation, result in words on Table 7
yeast = assay: preservation efficacy test (PET), overview of the effect against yeast; assay type: cell-based, Candida albicans; details: PET in formulation, result in words on Table 7
fungi/mould = assay: preservation efficacy test (PET), overview of the effect against fungi/mould; assay type: cell-based, Aspergillus brasiliensis; details: PET in formulation, result in words on Table 7
[1] = maximum water solubility of alkanediols, visual observation; assay type: physicochemical; details: ambient temperature after 24 h storage at 5° C.
Excerpt: The water solubility of a substance is the saturation mass concentration of the substance in water at a given temperature. The determination of the solubility in water relates to essentially pure substances which are stable in water and not volatile. The determination of the water solubility of the alkanediols is further described in the following Example 2.
For the determination of the maximum water solubility of an alkanediol, water and different concentrations of the respective alkanediol were blended by stirring. […] The determination of whether the alkanediol has dissolved in water is based entirely on visual observation.

[2] = 14 days after inoculation, substance at given % in test formulation
[3] = 28 days after inoculation, substance at given % in test formulation
[4] = 2 days after inoculation, substance at given % in test formulation, listed as 0.2% 1,2-heptanediol
[5] = 7 days after inoculation, substance at given % in test formulation, listed as 0.2% 1,2-heptanediol
[6] = 28 days after inoculation, substance at given % in test formulation, listed as 0.2% 1,2-heptanediol
[7] = 28 days after inoculation, substance at given % in test formulation, listed as 0.4% 1,2-heptanediol
[8] = 2 days after inoculation, listed as 0.6% 1,2-heptanediol
[9] = 2 days after inoculation, listed as 0.8% 1,2-heptanediol
[10] = 7 days after inoculation, listed as 0.6% 1,2-heptanediol
[11] = 7 days after inoculation, listed as 0.8% 1,2-heptanediol
[12] = 14 days after inoculation, listed as 0.6% 1,2-heptanediol
[13] = 14 days after inoculation, listed as 0.8% 1,2-heptanediol
[14] = 28 days after inoculation, listed as 0.6% 1,2-heptanediol
[15] = 28 days after inoculation, listed as 0.8% 1,2-heptanediol

With `CCCCCC(O)CO` (stereo not drawn) [1,2-heptanediol] the “PA germ count, 2 days” value (Pseudomonas aeruginosa; 2 days after inoculation, substance at given % in test formulation) was 1, the “PA germ count, 7 days” value (Pseudomonas aeruginosa; 7 days after inoculation, substance at given % in test formulation) was 1 and the “PA germ count, 14 days” value (Pseudomonas aeruginosa; [2]) was 1. For the same compound, the “PA germ count, 28 days” value (Pseudomonas aeruginosa; [3]) was 1, the “count at 2 days” value (Pseudomonas aeruginosa; PA, 2 days after inoculation, use concentration in label) was 1 and the “count at 7 days” value (Pseudomonas aeruginosa; PA, 7 days after inoculation, use concentration in label) was 1. The “count at 14 days” value (Pseudomonas aeruginosa; PA, 14 days after inoculation, use concentration in label) was 1, the “count at 28 days” value (Pseudomonas aeruginosa; PA, 28 days after inoculation, use concentration in label) was 1 and the “SA germ count, 2 days” value (Staphylococcus aureus; [4]) was 95.000. The “SA germ count, 7 days” value (Staphylococcus aureus; [5]) was 1, the “SA germ count, 14 days” value (Staphylococcus aureus; [2]) was 1 and the “SA germ count, 28 days” value (Staphylococcus aureus; [3]) was 1. The “number of microorganisms, 2 days” value (Staphylococcus aureus; PET in shampoo, Staphylococcus aureus (SA), 2 days after inoculation) was 10, the “number of microorganisms, 7 days” value (Staphylococcus aureus; PET in shampoo, Staphylococcus aureus (SA), 7 days after inoculation) was 10 and the “number of microorganisms, 14 days” value (Staphylococcus aureus; PET in shampoo, Staphylococcus aureus (SA), 14 days after inoculation) was 1. The “number of microorganisms, 28 days” value (Staphylococcus aureus; PET in shampoo, Staphylococcus aureus (SA), 28 days after inoculation) was 1, the “number of microorganisms, 14 days” value (Staphylococcus aureus; PET, Staphylococcus aureus (SA), 14 days after inoculation) was 1 and the “number of microorganisms, 28 days” value (Staphylococcus aureus; PET, Staphylococcus aureus (SA), 28 days after inoculation) was 1. The “count at 2 days” value (Staphylococcus aureus; SA, 2 days after inoculation, use concentration in label, listed as 0.6% 1,2-heptanediol) was 1, the “count at 2 days” value (Staphylococcus aureus; SA, 2 days after inoculation, use concentration in label, listed as 0.8% 1,2-heptanediol) was 1 and the “count at 7 days” value (Staphylococcus aureus; SA, 7 days after inoculation, use concentration in label, listed as 0.6% 1,2-heptanediol) was 1. The “count at 7 days” value (Staphylococcus aureus; SA, 7 days after inoculation, use concentration in label, listed as 0.8% 1,2-heptanediol) was 1, the “count at 14 days” value (Staphylococcus aureus; SA, 14 days after inoculation, use concentration in label) was 1 and the “count at 28 days” value (Staphylococcus aureus; SA, 28 days after inoculation, use concentration in label) was 1. For the same compound, the “EC germ count, 2 days” value (Escherichia coli; [4]) was 38.000, the “EC germ count, 7 days” value (Escherichia coli; [5]) was 73 and the “EC germ count, 14 days” value (Escherichia coli; 14 days after inoculation, substance at given % in test formulation, listed as 0.2% 1,2-heptanediol) was 1. The “EC germ count, 14 days” value (Escherichia coli; 14 days after inoculation, substance at given % in test formulation, listed as 0.4% 1,2-heptanediol) was 1, the “EC germ count, 28 days” value (Escherichia coli; [6]) was 1 and the “EC germ count, 28 days” value (Escherichia coli; [7]) was 1. The “count at 2 days” value (Escherichia coli; EC, 2 days after inoculation, use concentration in label, listed as 0.6% 1,2-heptanediol) was 1, the “count at 2 days” value (Escherichia coli; EC, 2 days after inoculation, use concentration in label, listed as 0.8% 1,2-heptanediol) was 1 and the “count at 7 days” value (Escherichia coli; EC, 7 days after inoculation, use concentration in label, listed as 0.6% 1,2-heptanediol) was 1. For the same compound, the “count at 7 days” value (Escherichia coli; EC, 7 days after inoculation, use concentration in label, listed as 0.8% 1,2-heptanediol) was 1, the “count at 14 days” value (Escherichia coli; EC, 14 days after inoculation, use concentration in label) was 1 and the “count at 28 days” value (Escherichia coli; EC, 28 days after inoculation, use concentration in label) was 1. For the same compound, the “number of microorganisms, 14 days” value (Escherichia coli; PET in shampoo, 14 days after inoculation) was 200.000, the “number of microorganisms, 28 days” value (Escherichia coli; PET in shampoo, 28 days after inoculation) was 1 and the “number of microorganisms, 14 days” value (Escherichia coli; PET, 14 days after inoculation) was 1. For the same compound, the “number of microorganisms, 28 days” value (Escherichia coli; PET, 28 days after inoculation) was 1, the “CA germ count, 28 days” value (Candida albicans; [6]) was 620.000 and the “count at 2 days” value (Candida albicans; [8]) was 69.000. The “count at 2 days” value (Candida albicans; [9]) was 68.000, the “count at 7 days” value (Candida albicans; [10]) was 2.800 and the “count at 7 days” value (Candida albicans; [11]) was 1. For the same compound, the “count at 14 days” value (Candida albicans; [12]) was 1, the “count at 14 days” value (Candida albicans; [13]) was 1 and the “count at 28 days” value (Candida albicans; [14]) was 1. For the same compound, the “count at 28 days” value (Candida albicans; [15]) was 1, the “number of microorganisms, 2 days” value (Candida albicans; PET in shampoo, Candida albicans (CA), 2 days after inoculation) was 220.000 and the “number of microorganisms, 7 days” value (Candida albicans; PET in shampoo, Candida albicans (CA), 7 days after inoculation) was 62.000. The “number of microorganisms, 14 days” value (Candida albicans; PET in shampoo, Candida albicans (CA), 14 days after inoculation) was 8.100, the “number of microorganisms, 28 days” value (Candida albicans; PET in shampoo, Candida albicans (CA), 28 days after inoculation) was 1 and the “AB germ count, 28 days” value (Aspergillus brasiliensis; [7]) was 1. The “count at 2 days” value (Aspergillus brasiliensis; [8]) was 510.000, the “count at 2 days” value (Aspergillus brasiliensis; [9]) was 670.000 and the “count at 7 days” value (Aspergillus brasiliensis; [10]) was 16.000. The “count at 7 days” value (Aspergillus brasiliensis; [11]) was 410.000, the “count at 14 days” value (Aspergillus brasiliensis; [12]) was 51.000 and the “count at 14 days” value (Aspergillus brasiliensis; [13]) was 63.000. The “count at 28 days” value (Aspergillus brasiliensis; 28 days after inoculation, listed as 0.4% 1,2-heptanediol) was 1, the “count at 28 days” value (Aspergillus brasiliensis; [14]) was 1 and the “count at 28 days” value (Aspergillus brasiliensis; [15]) was 1.100. The “efficacy against Aspergillus brasiliensis” value (Aspergillus brasiliensis; PET in formulation, result in words on Table 7) was “significantly efficacy”, the “number of microorganisms, 2 days” value (Aspergillus brasiliensis; PET in shampoo, Aspergillus brasiliensis (AB), 2 days after inoculation) was 240.000 and the “number of microorganisms, 7 days” value (Aspergillus brasiliensis; PET in shampoo, Aspergillus brasiliensis (AB), 7 days after inoculation) was 220.000. The “number of microorganisms, 14 days” value (Aspergillus brasiliensis; PET in shampoo, Aspergillus brasiliensis (AB), 14 days after inoculation) was 150.000, the “number of microorganisms, 28 days” value (Aspergillus brasiliensis; PET in shampoo, Aspergillus brasiliensis (AB), 28 days after inoculation) was 19.000 and the “antimicrobial efficacy against bacteria” value (bacteria) was “concentration dependent antimicrobial efficacy”. For the same compound, the “antimicrobial efficacy against yeast” value (yeast) was “concentration dependent antimicrobial efficacy”, the “antimicrobial efficacy against fungi” value (fungi/mould) was “concentration dependent antimicrobial efficacy” and the “Maximum solubility in water” value [1] was 2.5 % by weight.
